The data set is described as follows: Hydrolysis in aqueous solution. It counts as physicochemical.

In the case of `Cc1oc2c(C)c3oc(=O)cc(C)c3cc2c1CCl` [4'-chloromethyl-4,5',8-trimethyl psoralen], the “hydrolysis of the chloromethyl substituent in aqueous solution” value is “readily hydrolysed in aqueous solution”.

These data come from patent US4124598A, “Psoralens” (Hoffmann-La Roche Inc., priority 1976, dated 1978).
